The text below walks through data of patent publication US20250177383A1, “DI-CYCLOPROPYL BASED IL-17A MODULATORS AND USES THEREOF” (DICE ALPHA, INC., priority 2022, published 2025).

In one data set the target is T1, IL-17A/A (Homo sapiens, UniProt Q16552).
T1 sequence (Q16552 24-155): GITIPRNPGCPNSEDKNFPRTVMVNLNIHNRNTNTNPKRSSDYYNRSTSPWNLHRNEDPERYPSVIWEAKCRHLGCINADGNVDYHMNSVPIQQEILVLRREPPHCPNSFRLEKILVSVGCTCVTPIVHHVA
Description: IL-17A/A HEK-Blue Cell Assay. The data set is classed as cell-based. Particulars: HEK-Blue IL-17 reporter cells, IL-17A/A stimulation, 20 hours, SEAP readout; read-out: IL17 AA HEK-5 pIC50 (converted). The method, boiled down:
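Cells co-expressing IL-17RA, IL-17RC and Act1 received titrated compound, top final 10 uM in 0.1% DMSO, immediately before IL-17A/A stimulation.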

The target in another data set is T2, IL-17A/F (Homo sapiens, UniProt Q16552+Q96PD4).
T2 sequence (Q16552 24-155): T1 sequence (Q16552 24-155)
T2 sequence (Q96PD4 31-163): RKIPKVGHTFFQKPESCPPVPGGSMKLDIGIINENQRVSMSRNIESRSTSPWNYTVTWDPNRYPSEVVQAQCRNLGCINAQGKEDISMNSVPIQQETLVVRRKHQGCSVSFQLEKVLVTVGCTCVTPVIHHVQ
Description: IL-17A/F HEK-Blue Cell Assay. The settings on record: HEK-Blue IL-17 reporter cells, IL-17A/F stimulation, 20 hours, SEAP readout; read-out: IL17AF HEK Blue pIC50 (converted). The data set is classed as cell-based.

Data set [1] can be described thus: Microsomal stability, human liver microsomes. Particulars: human liver microsomes 0.5 mg protein/mL, 1 μM test compound, NADPH, 37° C., 60 min; read-out: HLM Clint. The data set is classed as in vitro ADME. As for the experimental part: (§1) Test compound and control working solution preparation. 5 μL of a compound and control stock solution (10 mM in dimethyl sulfoxide (DMSO)) were diluted with 495 μL of acetonitrile (ACN).
(§2) NADPH cofactor preparation. The appropriate amount of NADPH powder was weighed and diluted into a 10 mM MgCl2 solution (working solution concentration: 10 mM; final concentration in reaction system: 1 mM). Materials: NADPH powder: β-Nicotinamide adenine dinucleotide phosphate reduced form, tetrasodium salt; NADPHA4Na (Vendor: Chem-Impex International, Cat. No. 00616).
(§3) Liver Microsome Preparation. The appropriate concentrations of microsome working solutions were prepared in 100 mM potassium phosphate buffer. Materials: Human Liver Microsomes (HLM) Cat No. 452117 and Lot No. 38295 (Corning); SD Rat Liver Microsomes (RLM) Cat No. R1000 and Lot No. 1910100 (Xenotech).
(§4) Stop solution preparation. Cold (4° C.) acetonitrile (ACN) containing 200 ng/mL tolbutamide and 200 ng/mL labetalol as internal standards (IS) were used as the stop solution.
(§5) Assay Procedure. Empty incubation plates (T60 and NCF60) were warmed for 10 mins prior to use. Liver microsomes were diluted to 0.56 mg/mL in 100 mM phosphate buffer. 445 uL microsome working solutions (0.56 mg/mL) were transferred into pre-warmed ‘Incubation’ plates T60 and NCF60, Then ‘Incubation’ plates T60 and NCF60 were pre-incubated for 10 min at 37° C. with constant shaking. 54 μL liver microsomes were transferred to the blank plate, then 6 μL NAPDH cofactor were added to the blank plate, followed by the addition 180 μL quenching solution to the blank plate. 5 μL compound working solution (100 μM) were added into ‘incubation’ plates (T60 and NCF60) containing microsomes and mixed thoroughly 3 times. To the NCF60 plate 50 μL of buffer were added and mixed 3 times thoroughly. Start timing; plate was incubated at 37° C. for 60 min while shaking. In ‘Quenching’ plate TO, were added 180 μL quenching solution and 6 μL NAPDH cofactor. Plate is chilled to prevent evaporation. The T60 plate, was mixed 3 times thoroughly, and immediately 54 μL of the mixture was removed for the 0-min time point to ‘Quenching’ plate. Then 44 μL NAPDH cofactor was added to the incubation plate (T60). Start timing; plate was incubated at 37° C. for 60 min while shaking. Final concentrations of each component in the incubation media: Microsome (0.5 mg protein/mL); Test compound (1 μM); control compound ([…]); ACN (0.99%); and DMSO (0.01%). At 5, 15, 30, 45, and 60 min, 180 μL quenching solution was added to ‘Quenching’ plates, mixed once, and serially transferred 60 μL of sample from T60 plate per time point to ‘Quenching’ plates. For the NCF60 plate, mix once and 60 μL of sample was transferred from the NCF60 incubation to ‘Quenching’ plate containing quenching solution at the 60-min time point (Start time 1:00:00 and End Time 0:00:00).
(§6) All sampling plates were shaken for 10 min, then centrifuged at 4000 rpm for 20 minutes at 4° C. 80 μL of supernatant were transferred into 240 μL HPLC water, and mixed by plate shaker for 10 min. Each bioanalysis plate was sealed and shaken for 10 minutes prior to LC-MS/MS analysis.

The nature of data set [2]: Microsomal stability, rat liver microsomes. The data set is classed as in vitro ADME. Particulars: SD rat liver microsomes 0.5 mg protein/mL, 1 μM test compound, NADPH, 37° C., 60 min; read-out: RLM Clint. The method, then:
as §1, §2, §3, §4, §5, §6

The next data set can be described thus: Rat pharmacokinetics, PO. Particulars: male rat, PO 5 mg/kg oral gavage, plasma, Linear/log trapezoidal; read-out: Rat PO AUC0-t. Format: in vivo. The method, then: Formulations for PO. An appropriate amount of the test article is weighed and mixed with the appropriate volume of vehicle to get a clear solution or a uniform suspension, vortexing or sonication in water bath may used. Animals are dosed within four hours after the formulation is prepared.
Formulation samples are removed from each of the formulation solutions or suspensions, transferred into 1.5 mL of polypropylene microcentrifuge tubes and run dose validated by LC/UV or LC-MS/MS.
Dose administration. For PO dosing, the dose formulation is administered via oral gavage.
Blood Collection. Each blood collection (about 0.2 mL per time point) is performed from carotid artery cannula (CAC) of each animal into a pre-chilled commercial EDTA-K2 tubes as anti-coagulant, then placed on wet ice until centrifugation. Blood samples are processed for plasma by centrifugation at approximately 4° C., 3,200 g for 10 min. Plasma is collected respectively and a certain amount of plasma from rat is transferred into pre-labeled 96 well plate or polypropylene tubes, quick frozen over dry ice and kept at −60° C. or lower until LC-MS/MS analysis. After terminal collection, all plasmas are stored at approximately −80° C. freezer until final analysis.
Plasma concentration versus time data are plotted in graph and analyzed by non-compartmental approaches using the Phoenix WinNonlin 6.3 software program. Trapezoids: Before TMax (Linear); After Tmax (Log). Partial Area Interpolations: Before TMax (Linear); After Tmax (Log).

On to `CCn1nccc1C(=O)N[C@H](C(=O)Nc1ccc([C@H](C)[C@@H](NC(=O)COC)C(=O)N2CCN(C)C(CF)C2)cc1F)C(C1CC1)C1CC1` (single isomer, unassigned) [Compound 298], for which the IC50 at IL-17A/A is less than 10 nM; on IL-17A/F, 10 to 100 nM. The microsomal CLint at 1 μM in data set [1] was less than 50 µL/min/mg; in data set [2] it was less than 9.6 µL/min/mg. Further, the AUC(0-t) in the data set “Rat pharmacokinetics, PO” was more than 1000 ng·h/mL.
For `CCn1nccc1C(=O)N[C@H](C(=O)Nc1ccc([C@H](C)[C@@H](NC(=O)COC)C(=O)N2CCN(C)[C@H](C)C2)cc1F)C(C1CC1)C1CC1` [Compound 207], the IC50 on IL-17A/A is less than 10 nM; on IL-17A/F, 10 to 100 nM. The microsomal CLint at 1 μM in data set [1] is 50 to 150 µL/min/mg; in data set [2] it was less than 9.6 µL/min/mg. Moreover, the AUC(0-t) in “Rat pharmacokinetics, PO” is more than 1000 ng·h/mL.
As for `CCc1nonc1C(=O)N[C@H](C(=O)Nc1ccc([C@H](C)[C@@H](NC(C)=O)C(=O)N2CCN(C)[C@H](C)C2)cc1F)C(C1CC1)C1CC1` [Compound 214], the IC50 at IL-17A/A is less than 10 nM. The microsomal CLint at 1 μM in data set [1] lay within 50 to 150 µL/min/mg; in data set [2] it was 9.6 to 20 µL/min/mg. Moreover, the AUC(0-t) in “Rat pharmacokinetics, PO” is less than 500 ng·h/mL.
For `CCC(=O)N[C@@H](C(=O)N1CCN(C)[C@H](C)C1)[C@@H](C)c1ccc(NC(=O)[C@@H](NC(=O)c2ccnn2CCF)C(C2CC2)C2CC2)c(F)c1` [Compound 217] the same measures were less than 10 nM, less than 50 µL/min/mg, less than 9.6 µL/min/mg and less than 500 ng·h/mL.
On to `CCC(=O)N[C@@H](C(=O)N1C[C@@H](C)N(C)[C@@H](C)C1)[C@@H](C)c1ccc(NC(=O)[C@@H](NC(=O)c2ccnn2CC)C(C2CC2)C2CC2)c(F)c1` [Compound 223], for which the IC50 on IL-17A/A is less than 10 nM. In addition, the microsomal CLint at 1 μM in data set [1] lay in the range of 50 to 150 µL/min/mg; in data set [2] it was 9.6 to 20 µL/min/mg. In addition, the AUC(0-t) in the data set “Rat pharmacokinetics, PO” is less than 500 ng·h/mL.
The corresponding values for `CCn1nccc1C(=O)N[C@H](C(=O)Nc1ccc([C@H](C)[C@@H](NC(=O)N(C)C2CC2)C(=O)N2CCN(C)CC2)cc1F)C(C1CC1)C1CC1` [Compound 225] are less than 10 nM, 50 to 150 µL/min/mg, more than 20 µL/min/mg and less than 500 ng·h/mL.
`CCC(=O)N[C@@H](C(=O)N1CCN(C)[C@H](C)C1)[C@@H](C)c1ccc(NC(=O)[C@@H](NC(=O)c2ccnn2CC(F)F)C(C2CC2)C2CC2)c(F)c1` [Compound 232]: the IC50 on IL-17A/A is less than 10 nM. Moreover, the microsomal CLint at 1 μM in data set [1] is less than 50 µL/min/mg; in data set [2], less than 9.6 µL/min/mg. Also, the AUC(0-t) in the data set “Rat pharmacokinetics, PO” is less than 500 ng·h/mL.
Take `CCC(=O)N[C@@H](C(=O)N1CCN(C)CC1)[C@@H](C)c1ccc(NC(=O)[C@@H](NC(=O)c2ccnn2C(C)C)C(C2CC2)C2CC2)c(F)c1` [Compound 257]: the IC50 at IL-17A/A is less than 10 nM. The microsomal CLint at 1 μM in data set [1] is 50 to 150 µL/min/mg; in data set [2], less than 9.6 µL/min/mg. In addition, in the data set “Rat pharmacokinetics, PO”, the AUC(0-t) lay in the range of 500 to 1000 ng·h/mL.
In the case of `CCC(=O)N[C@@H](C(=O)N1CCN(C)[C@H](C)C1)[C@@H](C)c1ccc(NC(=O)[C@@H](NC(=O)c2ccnn2CC(F)F)[C@H]2CC[C@H](C)CC2)c(F)c1` [E, reference compound], the microsomal CLint at 1 μM in data set [1] is more than 150 µL/min/mg; in data set [2] it was 9.6 to 20 µL/min/mg. Also, in the data set “Rat pharmacokinetics, PO”, the AUC(0-t) lay in the range of 500 to 1000 ng·h/mL.
Turning to `CCC(=O)N[C@@H](C(=O)N1CCN(C)[C@H](C)C1)[C@@H](C)c1ccc(NC(=O)[C@@H](NC(=O)c2ccnn2CCF)[C@H]2CC[C@H](C)CC2)c(F)c1` [F, reference compound], the microsomal CLint at 1 μM was 50 to 150 µL/min/mg in data set [1] and 9.6 to 20 µL/min/mg in data set [2]. Besides, the AUC(0-t) in the data set “Rat pharmacokinetics, PO” is 500 to 1000 ng·h/mL.
The corresponding values for `CCC(=O)N[C@@H](C(=O)N1CCN(C)[C@H](C)C1)[C@@H](C)c1ccc(NC(=O)[C@@H](NC(=O)c2ccnn2CC)[C@H]2CC[C@H](C)CC2)c(F)c1` [G, reference compound] are more than 150 µL/min/mg, more than 20 µL/min/mg and 500 to 1000 ng·h/mL.
In the case of `CCC(=O)N[C@@H](C(=O)N1CCN(C)[C@H](C)C1)[C@@H](C)c1ccc(NC(=O)[C@@H](NC(=O)C2(F)CC2)[C@H]2CC[C@H](C)CC2)c(F)c1` [H, reference compound], the microsomal CLint at 1 μM in data set [1] fell in the range of 50 to 150 µL/min/mg; in data set [2], 9.6 to 20 µL/min/mg. In addition, the AUC(0-t) in the data set “Rat pharmacokinetics, PO” was less than 500 ng·h/mL.
The corresponding values for `CCC(=O)N[C@@H](C(=O)N1CCN(C)[C@@H](C)C1)[C@@H](C)c1ccc(NC(=O)[C@@H](NC(=O)c2ccnn2CC)[C@H]2CC[C@H](C)CC2)c(F)c1` [I, reference compound] are more than 150 µL/min/mg, 9.6 to 20 µL/min/mg and less than 500 ng·h/mL.
For `CCn1nccc1C(=O)N[C@H](C(=O)Nc1ccc([C@H](C)[C@@H](NC(=O)N(C)C2CC2)C(=O)N2CCN(C)CC2)cc1F)[C@H]1CC[C@H](C)CC1` [J, reference compound] the same measures were more than 150 µL/min/mg, more than 20 µL/min/mg and less than 500 ng·h/mL.
For `CCn1nccc1C(=O)N[C@H](C(=O)Nc1ccc([C@H](C)[C@@H](NC(=O)COC)C(=O)N2CCN(C)CC2)cc1F)[C@H]1CC[C@H](C)CC1` [K, reference compound] the same measures were more than 150 µL/min/mg, less than 9.6 µL/min/mg and 500 to 1000 ng·h/mL.
As to `CCC(=O)N[C@@H](C(=O)N1CCN(C)CC1)[C@@H](C)c1ccc(NC(=O)[C@@H](NC(=O)c2ccnn2C(C)C)[C@H]2CC[C@H](C)CC2)c(F)c1` [L, reference compound], the microsomal CLint at 1 μM was more than 150 µL/min/mg in data set [1] and 9.6 to 20 µL/min/mg in data set [2]. Moreover, the AUC(0-t) in “Rat pharmacokinetics, PO” was 500 to 1000 ng·h/mL.
